Test [1] deals with Enterococcus faecalis. The test can be described thus: Antibacterial activity against Enterococcus faecalis after 18 hr by broth microdilution technique. Type of test: functional. Background: Dilution methods test growth across graded concentrations, often in twofold steps.
Test [2] concerns Klebsiella pneumoniae. The test can be described thus: Antibacterial activity against Klebsiella pneumoniae after 18 hr by broth microdilution technique. Type of test: functional.
For test [3], the system named is Escherichia coli. Put plainly: Antibacterial activity against Escherichia coli after 18 hr by broth microdilution technique. Type of test: functional.
Test [4] relates to Pseudomonas aeruginosa. Put plainly: Antibacterial activity against Pseudomonas aeruginosa after 18 hr by broth microdilution technique. Type of test: functional.
Test [5] deals with Saccharomyces cerevisiae. Put plainly: Antifungal activity against Saccharomyces cerevisiae after 18 hr by broth microdilution technique. Type of test: functional.
Test [6] concerns Mycobacterium tuberculosis. Put plainly: Antimycobacterial activity against Mycobacterium tuberculosis H37Rv after 21 days by broth dilution method. Type of test: functional. To be noted: 504 h.
Test [7] deals with Bacillus subtilis. The test can be described thus: Antibacterial activity against Bacillus subtilis after 18 hr by broth microdilution technique. Type of test: functional.
Test [8] relates to A549. The test can be described thus: Cytotoxicity against Homo sapiens (human) A549 cells after 72 hr by MTT assay. Type of test: cell-based. The settings on record: A549, 72 h. (In general: Formazan colour is commonly taken as a measure of viable cells.)
Test [9] concerns Candida tropicalis. Put plainly: Antifungal activity against Candida tropicalis after 18 hr by broth microdilution technique. Type of test: functional.
Test [10] relates to Aspergillus niger. The test can be described thus: Antifungal activity against Aspergillus niger after 18 hr by broth microdilution technique. Type of test: functional.
For test [11], the system named is Vero. Put plainly: Cytotoxicity against Chlorocebus aethiops (African green monkey) Vero cells after 72 hr by MTT assay. Type of test: cell-based. To be noted: Chlorocebus sabaeus.
Test [12] relates to Staphylococcus aureus. Put plainly: Antibacterial activity against Staphylococcus aureus after 18 hr by broth microdilution technique. Type of test: functional.

Values after ≈ are worked out from the molar mass of the structure shown.

With `Cc1ccc(C)n1-c1ccc(-c2nnc(S)o2)cc1`, the MIC stood at 4 µg/mL (≈ 14.7 µM) in [1]; 62.5 µg/mL (≈ 230 µM) in [2]; 62.5 µg/mL (≈ 230 µM) in test [3]; 62.5 µg/mL (≈ 230 µM) in test [4]; 8 µg/mL (≈ 29.5 µM) in [5]; 2 µg/mL (≈ 7.37 µM) in [6]. Further, the MIC in test [7] stood at 4 µg/mL (≈ 14.7 µM); in test [9] it was 2 µg/mL (≈ 7.37 µM); in [10], 8 µg/mL (≈ 29.5 µM); in test [12] it was 2 µg/mL (≈ 7.37 µM). Further, the half-maximal inhibitory concentration (IC50) was 254 µM in [8] and 261 µM in [11].

Take `CC(=O)N1N=C(c2ccc(-n3c(C)ccc3C)cc2)OC1c1ccccc1` (stereo not given): the MIC in test [1] came to 62.5 µg/mL (≈ 174 µM); in test [2] it was 62.5 µg/mL (≈ 174 µM); in test [3], 500 µg/mL (≈ 1390 µM); in test [4], 500 µg/mL (≈ 1390 µM); in test [5], 62.5 µg/mL (≈ 174 µM); in test [6], 16 µg/mL (≈ 44.5 µM). Moreover, the MIC is 16 µg/mL (≈ 44.5 µM) in test [7], 16 µg/mL (≈ 44.5 µM) in [9], 31.2 µg/mL (≈ 86.9 µM) in test [10] and 62.5 µg/mL (≈ 174 µM) in test [12]. The IC50 in [8] came to 198 µM; in test [11], 190 µM.

For the molecule `CC(=O)N1N=C(c2ccc(-n3c(C)ccc3C)cc2)OC1c1ccccc1Cl` (stereo not given), the MIC in [1] stood at 31.2 µg/mL (≈ 79.3 µM); in test [2], 31.2 µg/mL (≈ 79.3 µM); in [3], 500 µg/mL (≈ 1270 µM); in test [4], 500 µg/mL (≈ 1270 µM); in test [5], 31.2 µg/mL (≈ 79.3 µM); in test [6], 8 µg/mL (≈ 20.3 µM). In addition, the MIC in test [7] came out at 8 µg/mL (≈ 20.3 µM); in test [9], 8 µg/mL (≈ 20.3 µM); in test [10] it was 16 µg/mL (≈ 40.6 µM); in test [12], 16 µg/mL (≈ 40.6 µM). The values for the IC50 in test [8] and in test [11] were 206 µM and 201 µM, respectively.

With `Cc1ccc(C)n1-c1ccc(-c2n[nH]c(=S)n2N)cc1`, the MIC in test [1] came out at 16 µg/mL (≈ 56.1 µM); in test [2], 500 µg/mL (≈ 1750 µM); in [3], 500 µg/mL (≈ 1750 µM); in test [4] it was 500 µg/mL (≈ 1750 µM); in [5], 4 µg/mL (≈ 14 µM); in [6] it was 4 µg/mL (≈ 14 µM). Moreover, the MIC in test [7] worked out at 31.2 µg/mL (≈ 110 µM); in test [9], 2 µg/mL (≈ 7.01 µM); in test [10], 4 µg/mL (≈ 14 µM); in test [12], 16 µg/mL (≈ 56.1 µM). The IC50 was 170 µM in [8] and 160 µM in test [11].

For the molecule `CC(=O)NNC(=O)c1ccc(-n2c(C)ccc2C)cc1`, the MIC in test [1] came to 31.2 µg/mL (≈ 115 µM); in test [2] it was 500 µg/mL (≈ 1840 µM); in test [3] it was 500 µg/mL (≈ 1840 µM); in test [4], 500 µg/mL (≈ 1840 µM); in test [5], 62.5 µg/mL (≈ 230 µM); in [6], 4 µg/mL (≈ 14.7 µM). Besides, the MIC in [7] came to 16 µg/mL (≈ 59 µM); in [9] it was 62.5 µg/mL (≈ 230 µM); in [10], 62.5 µg/mL (≈ 230 µM); in [12], 31.2 µg/mL (≈ 115 µM). In addition, the IC50 in test [8] was found to be 180 µM; in test [11], 172 µM.

Broadly, the MIC is the least concentration at which growth counts as inhibited. Lower therefore signals inhibition by little substance. The IC50 is the concentration that gives 50% inhibition. Read a high IC50 as weaker potency.

Source of the values: ChEMBL document CHEMBL3046206, “Synthesis of new 4-(2,5-dimethylpyrrol-1-yl)/4-pyrrol-1-yl benzoic acid hydrazide analogs and some derived oxadiazole, triazole and pyrrole ring systems: a novel class of potential antibacterial, antifungal and antitubercular agents” (Med Chem Res, 2013).
